Literature values in patent US12690594B2, “Apparatus and methods for dissolving carbon dioxide in water” (ECO-OXYGEN TECHNOLOGIES, LLC, priority 2023, dated 2026).

Test system: dreissenid mussel
Settings: laboratory and field studies; no concentration or exposure time printed

In the case of `O=C=O` [carbon dioxide], the mortality is given as “successfully cause mortality” and the “rate of veliger byssogenesis (settlement and colonization)” value is given as “reduction in the rate of veliger byssogenesis”.
